In test [1] the target is Prostaglandin G/H synthase 1 (Homo sapiens, UniProt P23219).
Test [2] is filed under the species Rattus norvegicus. As to the kind of experiment: animal or person. It is filed as functional.
For test [3], the species on record is Rattus norvegicus. As to the kind of experiment: animal or person. It is filed as functional. This is another data set of the same source.
The species named for test [4] is Rattus norvegicus. As to the kind of experiment: animal or person. It is filed as functional. This is another data set of the same source.
Test [5] is filed under the species Rattus norvegicus. As to the kind of experiment: animal or person. It is filed as functional. The source holds these as a separate data set.

Structures are written as SMILES. A value given as a limit tells only on which side of the number the result lay.

Prostaglandin G/H synthase 1, sequence (P23219 whole entry): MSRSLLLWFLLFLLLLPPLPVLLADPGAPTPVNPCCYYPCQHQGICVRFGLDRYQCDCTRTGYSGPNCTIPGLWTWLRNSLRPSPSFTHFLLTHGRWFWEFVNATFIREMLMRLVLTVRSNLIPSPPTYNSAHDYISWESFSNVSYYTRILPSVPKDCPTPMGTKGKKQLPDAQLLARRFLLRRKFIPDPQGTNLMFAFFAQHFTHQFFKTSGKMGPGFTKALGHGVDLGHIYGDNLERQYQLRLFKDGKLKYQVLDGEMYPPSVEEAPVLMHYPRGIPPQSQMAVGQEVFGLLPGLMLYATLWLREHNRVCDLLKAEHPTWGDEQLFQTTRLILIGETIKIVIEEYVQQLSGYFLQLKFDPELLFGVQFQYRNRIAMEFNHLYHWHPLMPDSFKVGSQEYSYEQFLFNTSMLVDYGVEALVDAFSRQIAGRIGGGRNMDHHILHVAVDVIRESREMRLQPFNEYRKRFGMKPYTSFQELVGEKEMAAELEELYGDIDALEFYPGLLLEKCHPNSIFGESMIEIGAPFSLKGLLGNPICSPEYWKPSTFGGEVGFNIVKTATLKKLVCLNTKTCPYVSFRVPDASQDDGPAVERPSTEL

As a reminder, the IC50 is the point on the concentration scale where inhibition reaches its midpoint. `CS(=O)(=O)c1ccc(-c2cc3ccccc3cc2-c2ccc(F)cc2)cc1`: the IC50 in test [1] was over 100 µM. The ED50 is the midpoint of the dose-response relation. With `NS(=O)(=O)c1ccc(-c2ccccc2-c2ccc(F)cc2)cc1`, the ED50 in test [2] is over 50 mg/kg; in test [3] it was 1.5 mg/kg. A word on the inhibition in vivo: it is the drop in the measured response relative to a control, in per cent. Read a low inhibition in vivo as a response near the control. For the compound `CS(=O)(=O)c1ccc(-c2cc3c(cc2-c2ccc(F)cc2)OCO3)cc1`, in test [4], 2 mg/kg produced 0% inhibition in vivo. As for `NS(=O)(=O)c1ccc(-c2cc3c(cc2-c2ccc(F)cc2)OCO3)cc1`, at 2 mg/kg the inhibition in vivo in test [4] was 26%. Regarding `NS(=O)(=O)c1ccc(-c2cc(F)c(F)cc2-c2ccc(F)c(Cl)c2)cc1`, the values for the ED50 in test [5] and in test [3] were 38.7 mg/kg and 0.05 mg/kg, respectively. In test [1], `CS(=O)(=O)c1ccc(-c2c(F)c(F)c(F)c(F)c2-c2ccc(F)cc2)cc1` displayed a 50% inhibitory concentration (IC50) of over 100 µM. On the same count and under the same terms, with `CS(=O)(=O)c1ccc(-c2cc(F)c(F)cc2-c2ccc3c(c2)OCCO3)cc1` the figure was over 100 µM; with `CS(=O)(=O)c1ccc(-c2cc(Cl)c(Cl)cc2-c2ccc(F)cc2)cc1`, over 100 µM.

For `CS(=O)(=O)c1ccc(-c2nccnc2-c2ccc(F)cc2)cc1`, the IC50 in test [1] is over 100 µM. Take `COc1c(Cl)cc(-c2cc(F)c(F)cc2-c2ccc(S(C)(=O)=O)cc2)cc1Cl`: the IC50 in test [1] was over 100 µM.
